# US20050159364A1, “Copper antagonist compounds” (priority 2003, published 2005)
# Where “and” joins values, the source holds several entries; their conditions need not be identical. Equal values may be shown once. Entries after “also recorded” stand apart in the source; their conditions may differ. Where a name gives a salt, the structure may show the parent alone. Read-outs that look alike come from different tables or passages of the source. Marks after values point to notes of the source that are not given here.
# Tests used:
# [1] = tested on: STZ-treated and non-STZ-treated rats; conditions: for Serum Cu: trientine i.v. 0.1-100 mg.kg^−1 hourly, terminal sample; for Serum Fe: trientine i.v.
# Text: All animals were fasted overnight prior to surgery but continued to have ad libitum access to deionized water. […] The femoral artery and vein were cannulated with a solid-state blood pressure transducer (Mikrotip™ 1.4F, Millar Instruments, Texas, USA) and a saline filled PE 50 catheter respectively. The ureters were exposed via a midline abdominal incision, cannulated using polyethylene catheters (external diameter 0.9 mm, internal diameter 0.5 mm) and the wound sutured closed. The trachea was cannulated and the animal ventilated at 70-80 breaths.min^−1 with air supplemented with O2 (Pressure Controlled Ventilator, Kent Scientific, Conn., USA). The respiratory rate and end-tidal pressure (10-15 cmH2O) were adjusted to maintain end-tidal CO2 at 35-40 mmHg (SC-300 CO2 Monitor, Pryon Corporation, Wisconsin, USA). Body temperature was maintained at 37° C. throughout surgery and the experiment by a heating pad. Estimated fluid loss was replaced with intravenous administration of 154 mmol.l^−1 NaCl solution at a rate of 5 ml.kg^−1.h^−1.
# (§1) Following surgery and a 20 min stabilization period, the experimental protocol was started. […] Control animals received an equivalent volume of saline. Urine was collected in 15 min aliquots throughout the experiment in pre-weighed polyethylene epindorf tubes. At the end of the experiment a terminal blood sample was taken by cardiac puncture and the separated serum stored at −80° C. until future analysis. Hearts were removed through a rapid mid-sternal thoracotomy and processed as described below.
# Urine and tissue analysis was carried out as follows. Instrumentation:A Perkin Elmer (PE) Model 3100 Atomic Absorption Spectrophotometer equipped with a PE HGA-600 Graphite Furnace and PE AS-60 Furnace Autosampler was used for Cu and Fe determninations in urine. Deuterium background correction was employed. A Cu or Fe hollow-cathode lamp (Perkin Elmer Corporation) was used and operated at either 10 W (Cu) or 15 W (Fe). The 324.8 nm atomic line was used for Cu and the 248.3 nm atomic line for Fe. The slit width for both Cu and Fe was 0.7 nm. Pyrolytically coated graphite tubes were used for all analyses. The injection volume was 20 μL. A typical graphite furnace temperature program is shown below:
# Sample pretreatment was carried out as follows. Urine:Urine was collected in pre-weighed 1.5 ml micro test tubes (eppendorf). After reweighing, the urine specimens were centrifuged and the supernatant diluted 25:1 with 0.02 M 69% Aristar grade HNO3. The sample was stored at 4° C. prior to GF-AAS analysis. If it was necessary to store a sample for a period in excess of 2 weeks, it was frozen and kept at −20° C. Serum:Terminal blood samples were centrifuged and serum treated and stored as per urine until analysis. From the trace metal content of serum from the terminal blood sample and urine collected over the final hour of the experiment, renal clearance was calculated using the following equation: [formula]
# [2] = tested on: humans with T2DM or matched controls; conditions: for Mean CU Losses, fecal, Post-Tment: n = 10, oral 2.4 g once daily
# Experimental: Total metal balance studies were performed in a residential metabolic unit. Total fecal outputs were collected daily for 12 days, freeze dried, and analyzed by ICP-MS for content of Cu, Fe, Zn, Ca, Mg, Mn, Cr, […] and Se.
# [3] = 0.9% saline, 0.67-670 mg/ml, four months at 4° C.
# Experimental: The concentrations of the stock formulations were:0.67 mg/ml, 6.7 mg/ml, 67 mg/ml, and 670 mg/ml. The formulation was then administered to the rats in doses of 0.1 mg/kg, 1 mg/kg, 10 mg/kg, and 100 mg/kg to the animals respectively.
# Tg2576 transgenic mice = conditions: oral treatment, nine weeks for clioquinol; cited from earlier work
# Male Wistar rats = experiment: Effects of streptozotocin (STZ) treatment in rats; format: in vivo, rat
# Text: Male Wistar rats (n=28, 303±2.9 g) were divided randomly into STZ-treated and non-treated groups. […] Non-treated animals received an equivalent volume of saline. […] Blood glucose and body weight were measure at day 3 following STZ/saline injection and then weekly throughout the study.
# [4] = 15 days
# Experimental: One sample of the solution was stored in the dark at 4° C. and 21° C. in the dark and a third sample was stored at 21° C. in daylight.
# The Ultraviolet-visible spectrum of the formulation was initially measured at day 0 and then at day 15. 20 μl aliquots of sample solutions were taken at day 15. For each aliquot 960 μl of 50 mM TRIS buffer and 20 μl aliquot of Copper Nitrate standard (100 mM—Orion Research Inc) were added.
# [5] = tested on: STZ-treated and normal rats; experiment: Isolated working heart function after 7 weeks oral trientine
# [6] = tested on: male humans with T2DM and matched non-diabetic controls
# Text: Methods were as follows. Human studies were approved by institutional ethics and regulatory committees. We measured urinary metal excretion in human males with T2DM or matched non-diabetic controls, baseline information on which is shown in Table 9, in a randomized, double blind, placebo-controlled trial. Males with uncomplicated T2DM (Table 9) underwent 12-d elemental balance studies in a fully residential metabolic unit. All foods and beverages were provided. Total daily intake (method of double diets) and excretion (urinary and fecal) of trace elements (Ca, Mg, Zn, Fe, Cu, Mn, Mo, Cr and Se) were determined (ICP MS).
# [7] = tested on: STZ-treated and non-STZ-treated rats; conditions: for Cu content of heart tissue / Fe content of heart tissue: mean ± SEM
# Experimental: Methods were carried out as follows. Spectrophotometric analysis was conducted as described in Example 2. Cu, Fe and Zn in tissue digests were determined at Hill Laboratories (Hamilton, New Zealand) using either a PE Sciex Elan-6000 or PE Sciex Elan-6100 DRC ICP-MS.
# Sample pre-treatment was carried out as follows. Heart:Following removal from the animal, the heart was cleaned of excess tissue, rinsed in buffer to remove excess blood, blotted dry and a wet ventricular weight recorded. Using titanium instruments a segment of left ventricular muscle was dissected and placed in a pre-weighed 5.0 ml polystyrene tube. The sample was freeze-dried overnight to constant weight before 0.45 ml of 69% Aristar grade HNO3 was added. The sample tube was heated in a water bath at 65° C. for 60 minutes. The sample was brought to 4.5 ml with Milli-Q H2O. The resulting solution was diluted 2:1 in order to reduce the HNO3 concentration below the maximum permitted for ICP-MS analysis.
# humans with T2DM = experiment: 6-month double-blind placebo-controlled oral trientine trial, LV mass by cardiac MRI
# Text: Subjects (30-70 y) who provided written informed consent were eligible for inclusion if they had:T2DM with HbA1c>7%; cardiac ejection fraction (echocardiography)≧45% with evidence of diastolic dysfunction but no regional wall-motion anomalies; no new medications for more than 6 months with no change of β-blocker dose; normal electrocardiogram (sinus rhythm, normal PR Interval, normal T wave and QRS configuration, and isoelectric ST segment); and greater than 90% compliance with single-blinded placebo therapy during a 2-w run-in period. Women were required to be post-menopausal, surgically sterile, or non-lactating and non-pregnant and using adequate contraception.
# Before randomization, potentially eligible subjects entered a 4-w single blind run-in phase of two placebo-capsules twice-daily and underwent screening echocardiography, being excluded if regional wall motion abnormalities or impaired LV systolic function (ejection fraction <50%) were detected. In addition, LV diastolic filling was assessed using mitral inflow Doppler (with pre-load reduction) to ensure patients had abnormalities of diastolic filling; no patient with normal mitral filling proceeded to randomisation. […] The double-blind treatment was continued for 6 months in each subject.
# At baseline and following 6 months' treatment, LV mass was determined using cardiac MRI, performed in the supine position with the same 1.5 T scanner (Siemens Vision) using a phased array surface coil. Prospectively gated cardiac cine images were acquired in 6 short axis and 3 long axis slices with the use of a segmented k-space pulse sequence (TR 8 ms; TE 5 ms; flip angle 10°; field of view 280-350 mm) with view sharing (11-19 frames.slice^−1). Each slice was obtained during a breath-hold of 15-19 heartbeats. The short axis slices spanned the left ventricle from apex to base with a slice thickness of 8 mm and inter-slice gap of 2-6 mm. The long axis slices were positioned at equal 60° intervals about the long axis of the LV. […] LV-mass and volume were calculated using guide point modeling, which produces precise and accurate estimations of mass and volume. Briefly, a three dimensional mathematical model of the LV was interactively fitted to the epicardial and endocardial boundaries of the LV wall in each slice of the study, simultaneously. Volume and mass were then calculated from the model by numerical integration (mass=wall volume×1.05 g.ml^−1). All measurements were performed by 1 measurer at the end of six months' data collection. Outcome analyses were conducted by intention-to-treat, using a maximum likelihood approach to impute missing at random data within a mixed model, and marginal least-squares adjusted-means were determined. Changes from baseline were compared between treatment-groups in the mixed model with baseline values entered as covariate. Since there were only 2 groups in the main effect and no interaction effect, no post hoc procedures were employed. In additional analysis the influence of clinically important differences between the treatment groups at baseline was considered by adjusting for them as covariates in an additional model. All P values were calculated from 2-tailed tests of statistical significance and a 5% significance level was maintained throughout. The effect of treatment on categorical variables was tested using the procedures of Mantel and Haenzel (SAS v8.01, SAS Institute).
# [8] = tested on: STZ-treated and non-STZ-treated rats; experiment: Left ventricular histology by LCM and TEM after oral trientine
# [9] = tested on: STZ-treated and non-STZ-treated rats; conditions: highest dose 100 mg/kg i.v., 2 min following administration
# Experimental: as §1
# Mean arterial pressure (MAP), heart rate (HR, derived from the MAP waveform) oxygen saturation (Nonin 8600V Pulse Oximeter, Nonin Medical Inc., Minnesota, USA) and core body temperature, were all continuously monitored throughout the experiment using a PowerLab/16s data acquisition module (AD Instruments, Australia).
# Following surgery and a 20 min stabilization period, the experimental protocol was started. […] Urine was collected throughout the experiment in 15 min aliquots.
# [10] = STZ-treated animals n = 14, mean ± SEM
# [11] = STZ-treated rats, oral trientine 7 weeks
# [12] = STZ-treated and non-STZ-treated rats
smiles,measurement,setting,value
NCCNCCNCCN [trientine dihydrochloride],Cu excretion in urine versus saline at lowest dose,"[1]; 0.1 mg.kg^−1 parenteral, rats",significantly increased
same,Effect on fecal Cu output,"[2]; normal humans and those with T2DM, dihydrochloride",does not result in increased excretion of copper in the feces
NCCNCCNCCN [trientine hydrochloride],Stability of stock solutions on storage (copper chelation efficacy),[3]; hydrochloride,without appreciable deterioration in efficacy
Oc1c(I)cc(Cl)c2cccnc12 [clioquinol],Brain Aβ / amyloid deposition,Tg2576 transgenic mice,decrease in brain Aβ deposition
"CN(N=O)C(=O)N[C@H]1C(O)O[C@H](CO)[C@@H](O)[C@@H]1O (mixture of isomers) [STZ, streptozotocin]",Daily food consumption,"Male Wistar rats; STZ 55 mg.kg^−1 i.v., n = 14, mean ± SEM",*58 ± 1 g
same,"Heart rate (HR), control period prior to infusion",Male Wistar rats; STZ-treated anaesthetized rats,287±11 bpm
same,Heart weight/body weight,Male Wistar rats; [10],*2.93 ± 0.05 mg · g^−1
same,Wet heart weight,Male Wistar rats; [10],*0.78 ± 0.02 g
NCCNCCNCCN [trientine],Stability of stock solutions on storage (copper chelation efficacy),[3],remains active as a copper chelator
same,Change in ability to chelate copper on storage,"[4]; 100 mM in deionized water, 4° C. dark, 21° C. dark, 21° C. daylight",no detectable change
same,Effect of room light on copper chelation,"[4]; 100 mM solution, 21° C., daylight",no detectable detrimental effect
same,Cardiac function versus untreated STZ-treated controls,[5]; [11],improved cardiac function
same,"Cardiac output with increasing pre-load, after-load constant",[5]; [11],restored to Sham values
same,Trientine treated STZ-treated hearts still functioning when 50% of untreated STZ-treated hearts had failed,"[5]; increasing after-load, constant pre-load",about 90%
same,Effect on cardiac performance of normal animals,"[5]; non-STZ-treated rats, oral trientine 7 weeks",no adverse effects on cardiac performance
same,Blood glucose profile versus untreated comparison group,[5]; oral trientine in drinking water weeks 7-13,made no difference
same,heart:body weight ratio in STZ-treated animals,[5]; oral trientine weeks 7-13 versus untreated STZ,small but significant improvement
same,Brain Aβ / amyloid deposition,Tg2576 transgenic mice,did not inhibit amyloid deposition
same,Mean trientine-evoked urinary Cu-excretion,"[6]; T2DM, oral 2.4 g once-daily",5.8 µmol/day
same,"Urinary Cu, diabetic and control groups","[6]; day 7, oral 2.4 g",increased urinary Cu in both groups
same,Mean trientine-evoked urinary Cu-excretion,"[6]; non-diabetic controls, oral 2.4 g once-daily",4.1 µmol/day
same,Increase of trientine-evoked urinary Cu-excretion in T2DM compared to non-diabetic controls,[6]; oral 2.4 g once-daily,40%
same,Trientine-evoked urinary Fe excretion,[6]; oral 2.4 g once-daily,no corresponding increase
same,"Urinary Cu excretion, trientine-treated T2DM versus trientine-treated non-diabetic controls","[6]; single 2.4-g oral dose, day 7, P<0.05",significantly greater
same,Cu content of heart tissue,[7]; STZ-treated rats,24.7 ± 1.5 μg · g^−1 dry tissue
same,Fe content of heart tissue,[7]; STZ-treated rats,186 ± 46 μg · g^−1 dry tissue
same,Effect on copper content of cardiac tissue,"[7]; acute i.v. increasing doses, normal and STZ-treated rats",no significant effect
same,Cu content of heart tissue,[7]; non-STZ-treated rats,27.1 ± 1.0 μg · g^−1 dry tissue
same,Fe content of heart tissue,[7]; non-STZ-treated rats,235 ± 39 μg · g^−1 dry tissue
same,Urine excretion versus saline,"[1]; 100 mg.kg^−1 dose, non-STZ-treated rats",increased urine excretion
same,Total copper excreted over the entire duration of the experiment versus saline controls,[1]; [12],significantly increased
same,Urinary iron excretion versus saline,[1]; [12],not increased
same,Serum Cu,"[1]; STZ-treated rats, n = 6",7.56 ± 0.06 μg · μl^−1 × 10^−4
same,Serum Fe,"[1]; STZ-treated rats, n = 6",35.7 ± 7.98 μg · μl^−1 × 10^−4
same,Urinary Cu excretion versus equivalent volume of saline,"[1]; all doses 0.1, 1.0, 10, 100 mg.kg^−1 i.v., STZ-treated and non-STZ-treated rats",excreted more Cu
same,"Urinary copper excretion per gram of bodyweight, STZ-treated versus non-STZ-treated",[1]; following trientine administration,greater per gram of bodyweight in STZ-treated
same,Serum Cu,"[1]; non-STZ-treated rats, n = 4",7.11 ± 0.41 μg · μl^−1 × 10^−4
same,Serum Fe,"[1]; non-STZ-treated rats, n = 4",33.6 ± 1.62 μg · μl^−1 × 10^−4
same,Adverse events during 6 months' therapy,humans with T2DM; 600 mg twice-daily oral,No significant trientine-related adverse events
same,Δ diastolic blood pressure,"humans with T2DM; 6 months − baseline, mean",−3.9 mmHg
same,Δ systolic blood pressure,"humans with T2DM; 6 months − baseline, mean",−3.5 mmHg
same,Δ urinary copper,"humans with T2DM; 6 months − baseline, mean",-0.83 µmol/L
same,Δ left ventricular mass/body surface area,"humans with T2DM; 6 months − baseline, mean, P<0.01 vs. placebo",−5.56** g · m^−2
same,Decrease of mean LV mass,"humans with T2DM; diabetics, 600 mg twice-daily oral, 6 months",5%
same,Myocardium of trientine-treated non-STZ-treated rats,[8],appeared normal
same,Myocardial (LV) histology in STZ-treated rats,[8]; 7 weeks oral trientine,improved; also recorded: substantive recovery of LV structure
same,"Mean CU Losses, fecal, Post-Tment",[2]; control,2.045 mg/day
same,"Mean CU Losses, fecal, Post-Tment",[2]; diabetic,1.965 mg/day
same,"Effect on fecal outputs of Zn, Fe, Ca, Mg, Mn, Cr, Mb or Se",[2]; oral 2.4 g once daily,Neither diabetes nor trientine had measurable effects
same,Maximum decrease of mean arterial pressure (MAP),[9],19±4 mmHg and 19+/−4 mmHg
